Measured values from patent US20030236276A1, “Pyrrolo[2.1-a]isoquinoline derivatives” (priority 2001, published 2003).

Assays:
PDE 10a = biological target: T1, PDE 10a (Homo sapiens, UniProt Q9Y233); assay: In vitro enzyme inhibition assay (PDE 10a, scintillation proximity, [3H]cAMP substrate); assay type: biochemical; conditions: full-length recombinant PDE 10a, crude Sf9 cell lysate; 60 minutes, room temperature
T1 construct: Full-length recombinant PDE 10a was expressed in Sf9 insect cells; made in house; host or cells: Sf9 insect cells (baculovirus, Bac-to-Bac)
Procedure: In vitro Enzyme Inhibition Assay:
Full-length recombinant PDE 10a was expressed in Sf9 insect cells (Invitrogen, Carlsbad, Calif., U.S.A.) using the Bac-to-Bac™ Baculovirus Expression System (Life Technologies, Gaithersburg, Md., U.S.A.). 48 hours post infection, cells were harvested and resuspended in 20 mL (per 1L culture) Lysis Buffer (50 mM Tris-HCl, pH 7.4, 50 mM NaCl, 1 mM MgCl2, 1.5 mM EDTA, 10% glycerol plus 20 μL Protease Inhibitor Cocktail Set III [CalBiochem, La Jolla, Calif., U.S.A.]). Cells were sonicated at 4° C. for 1 minute and centrifuged at 10,000 RPM for 30 minutes at 4° C. Supernatant was removed and stored at −20° C. for activity assays.
The test compounds were serially diluted in DMSO using two-fold dilutions to stock concentrations ranging typically from 200 μM to 1.6 μM (final concentrations in the assay range from 4 μM to 0.032 μM). 96-well assay isoplates (Wallac Inc., Atlanta, Ga., U.S.A.) were loaded with 2 μL of the serially diluted individual test compounds followed by 50 μL of a dilution of crude recombinant PDE 10a-containing sf9 cell lysate. The dilution of the lysate was selected such that less than 70% of the substrate is converted during the later incubation (typical dilution: 1:10000; dilution buffer: 50 mM Tris/HCl pH 7.5, 8.3 mM MgCl2, 1.7 mM EDTA, 0.2% BSA). The substrate, [5′,8-^3H] adenosine 3′,5′-cyclic phosphate (1 μCi/μL; Amersham Pharmacia Biotech., Piscataway, N.J., U.S.A.), was diluted 1:2000 in assay buffer (assay buffer: 50 mM Tris/HCl pH 7.5, 8.3 mM MgCl2, 1.7 mM EDTA) to give a final working concentration of 0.0005 μCi/μL. The enzymatic assay was initiated by addition of 50 μL (0.025 μCi) of diluted substrate. Reactions were incubated at room temperature for 60 minutes and terminated by addition of 25 μL of 18 mg/mL Yttrium Scintillation Proximity Beads (Amersham Pharmacia Biotech., Piscataway, N.J., U.S.A.). Plates were sealed and incubated at room temperature for 60 minutes. Plates were read for 30 seconds/well using a Microbeta counter (Wallac Inc., Atlanta, Ga., U.S.A.). The IC50 values were determined by plotting compound concentration versus percent inhibition.

[1] = test system: MDA-MB-231 human breast carcinoma cells; assay: In vitro proliferation inhibition assay (LDH activity, 72 hours); assay type: cell-based; conditions: MDA-MB-231 cells; for inhibition at 10 µM: read-out: % inhibition at a concentration of 10 μM; for inhibition at 2 µM: read-out: % inhibition at a concentration of 2 μM
Procedure: In vitro Proliferation Inhibition Assay:
MDA-MB-231 human breast carcinoma cells (ATCC #HTB26) were cultured in standard growth medium (DMEM), supplemented with 10% heat-inactivated FBS, 10 mM HEPES, 2 mM glutamine, 100 U/mL penicillin, and 100 μg/mL streptomycin) at 37° C. in 5% CO2 (vol/vol) in a humidified incubator. Cells were plated at a density of 3000 cells per well in 100 μL growth medium in a 96 well culture dish. 24 hours after plating, lactate dehydrogenase (LDH) activity was determined using the Cytotox 96 Non-radioactive Cytotoxicity Kit (Promega, Madison Wis., U.S.A.) to yield T0h LDH values. Briefly, cells were lysed with the addition of 200 μL of Lysis Buffer (included in the Promega Kit) and lysates were further diluted 1:50 in Lysis Buffer. 50 μL of diluted cell lysate were transferred to a fresh 96 well culture plate. The assay was initiated with the addition of 50 μL of substrate per well. Color development was allowed to proceed for 10-15 minutes. The assay was terminated with the addition of 50 μL of Stop Solution (included in the Promega Kit). Optical densities were determined spectrophotometrically at 490 nm in a 96 well plate reader (SpectraMax 250, Molecular Devices, Sunnyvale, Calif., U.S.A.).
Test compounds were dissolved in 100% DMSO to prepare 10 mM stocks. Stocks were further diluted 1:250 in growth medium to yield working stocks of 40 μM test compound in 0.4% DMSO. Test compounds were serially diluted in growth medium containing 0.4% DMSO to maintain constant DMSO concentrations for all wells. 50 μL of fresh growth medium and 50 μL of diluted test compound were added to each culture well to give a final volume of 200 μL. The cells with and without individual test compounds were incubated for 72 hours at which time LDH activity was measured to yield T72h values. Optionally, the IC50 values can be determined with a least squares analysis program using compound concentration versus percent inhibition.
% Inhibition=[1−(T72h test−T0h)/(T72h ctrl−T0h)]×100
T72h test=LDH activity at 72 hours in the presence of test compound
T72h ctrl=LDH activity at 72 hours in the absence of test compound
T0h=LDH activity at Time Zero

T1 sequence (Q9Y233 1-779 isoform Q9Y233-1): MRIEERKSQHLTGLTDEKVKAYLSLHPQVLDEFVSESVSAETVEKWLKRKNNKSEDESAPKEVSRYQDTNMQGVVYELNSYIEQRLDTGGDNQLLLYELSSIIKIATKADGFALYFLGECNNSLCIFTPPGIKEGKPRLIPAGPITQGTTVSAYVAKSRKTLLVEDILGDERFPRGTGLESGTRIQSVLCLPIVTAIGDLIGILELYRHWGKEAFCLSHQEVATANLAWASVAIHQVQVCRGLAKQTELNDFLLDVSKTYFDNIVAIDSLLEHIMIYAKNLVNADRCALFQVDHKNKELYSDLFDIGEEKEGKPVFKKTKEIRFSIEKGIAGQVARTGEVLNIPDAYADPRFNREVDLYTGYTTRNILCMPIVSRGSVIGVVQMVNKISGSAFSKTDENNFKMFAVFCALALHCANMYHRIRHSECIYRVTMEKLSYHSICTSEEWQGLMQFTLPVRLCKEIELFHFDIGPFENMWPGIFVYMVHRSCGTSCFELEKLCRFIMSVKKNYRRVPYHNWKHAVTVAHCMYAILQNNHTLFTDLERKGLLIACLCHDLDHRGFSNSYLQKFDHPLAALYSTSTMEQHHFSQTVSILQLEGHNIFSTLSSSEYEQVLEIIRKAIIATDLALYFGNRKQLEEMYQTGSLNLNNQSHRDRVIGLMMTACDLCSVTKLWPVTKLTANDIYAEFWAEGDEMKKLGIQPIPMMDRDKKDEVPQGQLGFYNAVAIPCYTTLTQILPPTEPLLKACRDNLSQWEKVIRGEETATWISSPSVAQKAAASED

## CCOC(=O)c1c(C(C)C)c(C)n2c1-c1cc(OC)c(OC)cc1CC2 [Example 5]
PDE 10a
  IC50: 370 nM
[1]
  inhibition at 10 µM: 87%

## CCOC(=O)c1c(-c2cccc3ncc(C)cc23)c(C)n2c1-c1cc(OC)c(OC)cc1CC2 [Example 7]
PDE 10a
  IC50: 140 nM
[1]
  inhibition at 10 µM: 85%

## CCOC(=O)c1c(-c2cn(C(C)=O)c3ccccc23)c(C)n2c1-c1cc(OC)c(OC)cc1CC2 [Example 8]
PDE 10a
  IC50: 94 nM
[1]
  inhibition at 10 µM: 84%

## CCOC(=O)c1c(-c2c[nH]c3ccc(OC)cc23)c(C)n2c1-c1cc(OC)c(OC)cc1CC2 [Example 12]
PDE 10a
  IC50: 365 nM
[1]
  inhibition at 2 µM: 73%

## CCOC(=O)c1c(-c2cn(C)c3ccccc23)c(C)n2c1-c1cc(OC)c(OC)cc1CC2 [Example 23]
PDE 10a
  IC50: 71 nM
[1]
  inhibition at 2 µM: 90%

## CCOC(=O)c1c(-c2c[nH]c3c(OC)cccc23)c(C)n2c1-c1cc(OC)c(OC)cc1CC2 [Example 46, Ethyl-2-(1H-7-methoxy-indol-3-yl)-8,9-dimethoxy-3-methyl-5,6-dihydropyrrolo[2,1-a]isoquinoline-1-carboxylate]
PDE 10a
  IC50: 220 nM
[1]
  inhibition at 2 µM: 90%

## CCOC(=O)c1c(-c2cccc3cc[nH]c23)c(C)n2c1-c1cc(OC)c(OC)cc1CC2 [Example 49]
PDE 10a
  IC50: 110 nM
[1]
  inhibition at 2 µM: 91%

## CCOC(=O)c1c(-c2c[nH]c3ccc(Cl)cc23)c(C)n2c1-c1cc(OC)c(OC)cc1CC2 [Example 50]
PDE 10a
  IC50: 330 nM
[1]
  inhibition at 2 µM: 77%

## CCOC(=O)c1c(-c2c[nH]c3cc(F)ccc23)c(C)n2c1-c1cc(OC)c(OC)cc1CC2 [Example 52]
PDE 10a
  IC50: 220 nM
[1]
  inhibition at 2 µM: 81%

## CCOC(=O)c1c(-c2cn(Cc3ccccc3)c3ccccc23)c(C)n2c1-c1cc(OC)c(OC)cc1CC2 [Example 56]
PDE 10a
  IC50: 68 nM
[1]
  inhibition at 2 µM: 64%

## CCOC(=O)c1c(-c2cccc3c2ccn3CC)c(C)n2c1-c1cc(OC)c(OC)cc1CC2 [Example 57, Ethyl 2-(1-ethyl-1H-indol-4-yl)-8,9-dimethoxy-3-methyl-5,6-dihydropyrrolo[2,1-a]-isoquinoline-1-carboxylate]
PDE 10a
  IC50: 1500 nM
[1]
  inhibition at 2 µM: 89%

## CCOC(=O)c1c(-c2cccc3c2ccn3CCC#N)c(C)n2c1-c1cc(OC)c(OC)cc1CC2 [Example 61]
PDE 10a
  IC50: 200 nM
[1]
  inhibition at 2 µM: 90%

## CCOC(=O)c1c(-c2cccc3c(C(=O)C4CC4)c[nH]c23)c(C)n2c1-c1cc(OC)c(OC)cc1CC2 [Example 68, Ethyl 2-[3-(cyclopropylcarbonyl)-1H-indol-7-yl]-8,9-dimethoxy-3-methyl-5,6-dihydropyrrolo[2,1-a]isoquinoline-1-carboxylate]
[1]
  inhibition at 2 µM: 43%

## CCOC(=O)c1c(-c2cccc3c(C(=O)c4ccccc4)c[nH]c23)c(C)n2c1-c1cc(OC)c(OC)cc1CC2 [Example 71]
PDE 10a
  IC50: 170 nM
[1]
  inhibition at 2 µM: 72%

## CCOC(=O)c1c(-c2ccc3[nH]cc(C(C)=O)c3c2)c(C)n2c1-c1cc(OC)c(OC)cc1CC2 [Example 72]
[1]
  inhibition at 2 µM: 81%

## CCOC(=O)c1c(-c2ccc3ncoc3c2)c(C)n2c1-c1cc(OC)c(OC)cc1CC2 [Example 76, Ethyl 2-(1,3-benzoxazol-6-yl)-8,9-dimethoxy-3-methyl-5,6-dihydropyrrolo[2,1-a]isoquinoline-1-carboxylate]
PDE 10a
  IC50: 150 nM
[1]
  inhibition at 2 µM: 63%

## CCCNC(=O)N1CCc2cc(-c3c(C(=O)OCC)c4n(c3C)CCc3cc(OC)c(OC)cc3-4)ccc21 [Example 81]
PDE 10a
  IC50: 100 nM
[1]
  inhibition at 2 µM: 89%

## CCOC(=O)c1c(-c2ccc3c(c2)CCN3S(=O)(=O)c2ccccc2)c(C)n2c1-c1cc(OC)c(OC)cc1CC2 [Example 87]
PDE 10a
  IC50: < 30 nM
[1]
  inhibition at 2 µM: 95%

## CCOC(=O)c1c(-c2ccc3c(c2)CCN3S(C)(=O)=O)c(C)n2c1-c1cc(OC)c(OC)cc1CC2 [Example 88]
[1]
  inhibition at 2 µM: 40%
